We go through two molecules from patent US11414454B2, “Compositions, methods, and systems for affinity-based protein identification and purification” (Auctus Biologies, Inc., priority 2017, dated 2022).

Where “and” joins values, the source holds several entries; their conditions need not be identical. Equal values may be shown once. Read-outs that look alike come from different tables or passages of the source. Where only a bound is given, the exact number is not on record here.

The target of data set [1] is RPtag (large). The data set can be described thus: Fluorescence anisotropy Kd of rhodamine labeled RPtag (small) peptides for RPtag (large). Format: binding, Thermoanaerobacter tengcongensis. As to conditions: Example 6, 1 nM rhodamine labeled native RPtag (small). How it is done:
(§1) 50 nM of RP-Tag Small (see Sequence 3, below) with an N-terminal Rhodamine B label was incubated with increasing concentrations of either RP-Tag Large (see Sequence 2) or Bovine Serum Albumin (BSA) in 50 mM Tris pH 8.0, 150 mM NaCl, 10 mM 2-mercaptoethanol, and 0.005% Tween 20 for 5 min in black 96-well plates at room temperature.
(§2) Anisotropy was then measured, and a Kd calculated by fitting the data to the equation f=y0+(ymax−y0)*(Ptot+x+Kd−sqrt((Ptot+x+Kd)^2−4*Ptot*x))/(2*Ptot), where y0 is the baseline anisotropy, ymax is the maximum anisotropy, Ptot is the fixed concentration of labeled peptide used, x is the variable concentration of protein used, and Kd is the measured Kd.
(§3) The indicated concentrations of RPtag (large) and an anti-His tag antibody (4E3D10H2/E3 purchased from ThermoFisher Scientific) were incubated with 1 nM rhodamine labeled native RPtag (small) peptide and 6×His peptide (Rhodamine-GHHHHHH), respectively, and fluorescence anisotropy measured. BSA incubated with native rhodamine labeled RPtag(small) is included as a control for non-specific binding. Kd's were calculated according to the equation f=y0+(ymax−y0)*(Ptot+x+Kd−sqrt((Ptot+x+Kd)^2−4*Ptot*x))/(2*Ptot), where y0 is the baseline anisotropy, ymax is the maximum anisotropy, Ptot is the fixed concentration of labeled peptide used, x is the variable concentration of protein used, and Kd is the measured Kd. We measured a Kd of 0.2±0.1 nM for RPtag(large) binding RPtag(small), and a Kd of 6±1 nM for the antibody/6×His tag pair.
Regarding the studies shown in FIG. 14, increasing concentrations of unlabeled RPtag large with the indicated mutations (native, f137d, and f137e) were incubated for 1 h with 1 nM rhodamine labeled RPtag small peptide and the fluorescence anisotropy was measured. Resultant curves were fit with the equation f=y0+(ymax−y0)*(Ptot+x+Kd−sqrt((Ptot+x+Kd)^2−4*Ptot*x))/(2*Ptot), where y0 is the baseline anisotropy, ymax is the maximum anisotropy, Ptot is the fixed concentration of labeled peptide used, x is the variable concentration of protein used, and Kd is the measured Kd. Data are presented here as Ka=1/Kd. Log transformed Ka's were then compared by one-way ANOVA with Holm-Sidak post hoc correction. ***p<0.001, **p<0.01, *p<0.05. data are mean±SEM (n=3-4). Buffer was 50 mM Tris pH 8.0, 0.005% tween20. Proteins were expressed and purified by single step NiNTA chromatography as before. Peptides were synthesized solid-state and handled as previous.

For data set [2], the system named is RPtag (large). As to the kind of experiment: Association/dissociation kinetics of RPtag (small) peptides with RPtag (large) by fluorescence anisotropy. The class given is binding, Thermoanaerobacter tengcongensis. A digest of the protocol:
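Rhodamine-labeled RPtag small incubated with unlabeled RPtag large; binding followed by fluorescence anisotropy and converted to complex concentration. For dissociation, 1000 nM RPtag large complex chased with 0.1 mM unlabeled native or Nd2,P5A,E18A peptide; koff from initial rates or single-exponential fits, kon derived from koff and Kd.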
In general terms: Polarisation of emitted light reports the rotation of a fluorescent probe.

The target of data set [3] is RPtag (large). The data set can be described thus: Buffer additive screen, Kd by fluorescence anisotropy. The class given is binding, Thermoanaerobacter tengcongensis. How it is done:
To determine reagent compatibility with the disclosed system, an additive screen was performed, wherein the Kd between RPtag (large) and 3 RPtag (small) peptides—native, Nd8Cd4, and Nd2p5ae18a—were tested in the presence of several common buffer additives (Table 3).

Data set [4] deals with Bovine Serum Albumin (BSA) (Bos taurus, UniProt P02769). Format: binding. As to conditions: fluorescence anisotropy, rhodamine labeled peptide, up to 10 μM BSA. As to the method: as §1, §2, §3
In data set [5] the test system is Bovine Serum Albumin (BSA). The class given is binding. How it is done:
as §1, §2, §3

For data set [6], the system named is RPtag(large). The data set can be described thus: pH profile of Kd by fluorescence anisotropy. The class given is binding, Thermoanaerobacter tengcongensis. To be noted: buffers pH 1.5 to 13. As to the method:
The Kds of Nd8,Cd4 for RPtag(large) was measured in the presence of buffers of different pHs ranging from 1.5 to 13.
For these experiments, Kds were measured by fluorescence anisotropy as described above in the following buffers, all at 100 mM with 0.005% Tween 20: glycine pH 1.5, glycine pH 2.0, glycine pH 3.0, acetate pH 4.5, 2-(N-morpholino)ethanesulfonic acid pH 6.0, tris pH 7.0, tris pH 7.5, tris pH 8.0, tris pH 8.5, borate pH 10.0, phosphate pH 11.5, phosphate pH 13.0.

Data set [7] deals with immobilized RPtag(large) column. As to the kind of experiment: Native elution from immobilized RPtag(large) column (3 M NaCl binding, 3 M imidazole elution). More on the design: species or system Thermoanaerobacter tengcongensis. To be noted: bound in 100 mM Tris pH 8.0, 3 M NaCl, 0.005% Tween20. The source says:
Because of the observed stabilizing character of NaCl and destabilizing character of imidazole on Nd8Cd4 binding, these reagents, among others, were incorporated into a novel buffering system for use with the disclosed proteins, peptides, systems, and methods. In particular, the effect of this novel buffer on binding of RPtag (small) Nd8Cd4 to an immobilized RPtag(large) column was studied. These experiments included eluting both (1) rhodamine labeled peptide and (2) N-terminally RPtag(small) Nd8Cd4 tagged with tagRFP from a column under native conditions. Generally, native conditions is taken to mean at or near biological conditions under which many proteins are folded, e.g. pH 4-9 at moderate temperature (4° C.-30° C.) in the absence of denaturants (e.g. guanidine hydrochloride, urea, SDS). This is in contrast to denaturing conditions, which generally rely on extreme pH (e.g. ≤2) denaturants, or high temperature to unfold proteins.
Briefly, columns, as described above, were first equilibrated with 10 mL 100 mM Tris pH 8.0, 3 M NaCl, 0.005% Tween20. Next, 1 mL of 10 uM rhodamine-tagged Nd8Cd4 or tagRFP containing an N-terminal RPtag (small) Nd8Cd4 tag was applied in the same buffer. The column was then washed with 10 mL of the same buffer. Finally, bound target molecules were eluted with 10 mL of 100 mM Tris pH 8.0, 3 M imidazole, 0.005% Tween20.

The subject of data set [8] is rhodamine labeled RPtag (small). As to the kind of experiment: Sequential boiling/recovery trials, fraction binding of RPtag (large). More on the design: species or system Thermoanaerobacter tengcongensis. As to the method: The ability of the disclosed proteins and peptides to function after being subjected to thermal stress was also tested. Here again the RPtag (large) and anti-6×His antibody were selected for analysis. Briefly, the RPtag(large) or the anti-6×His antibody was subjected to sequential rounds of boiling and recovery. Specifically, the proteins were subjected to sequential rounds of: 5 min boiling in buffer, followed by recovery for 1 min on ice. After each round of boiling/recovery, the proteins were assayed for binding to their corresponding epitopes and the results plotted.
RPtag (large) and an the anti-His tag antibody (4E3D10H2/E3 purchased from ThermoFisher Scientific) were placed in a solution at about 0.1-1 μM [final] in a buffer of 50 mM Tris pH 8.0, 0.005% Tween20. The protein solutions were repeatedly heated for 5 min at 95° C. and then recovered on ice for 1 min. After each round of heating/cooling, an aliquot was taken and diluted to 100 nM, and incubated with 100 nM either rhodamine labeled RPtag (small) or rhodamine labeled 6x-His peptide (sequence: Rhodamine-GHHHHHH), and the fluorescence anisotropy measured. Fraction binding was calculated via the equation F=(r−rmin)/(r0−rmin) where F is the fraction binding, r is the measured anisotropy, rmin is the anisotropy in the absence of binding protein, and r0 is the anisotropy before any boiling trials.

For data set [9], the target named is RPtag(small) (Nd2Cd4). As to the kind of experiment: Fluorescence anisotropy Kd of RPtag(large) variants for control RPtag(small) peptide Nd2Cd4. As to conditions: 2 nM rhodamine labeled Nd2Cd4. The class given is binding, Thermoanaerobacter tengcongensis. As to the method: An initial Kd was measured between RPtag(large) and the PDGF-β N-terminal peptide (FIG. 16). […] Next, competition experiments were performed using the mutant RPtag(small) peptide Nd2,P5A,E18A.
Kds were measured by incubating increasing concentrations of unlabeled RPtag large mutant with either 20 nM rhodamine labeled PDGF-β n-terminal peptide or 2 nM rhodamine labeled Nd2Cd4 variant of RPtag small, as it has the same number of amino acids as the PDGF-β peptide but contains the native binding sequence. After the incubation, fluorescence anisotropy was measured, and the resultant curves were fit with the equation f=y0+(ymax−y0)*(Ptot+x+Kd−sqrt((Ptot+x+Kd)^2−4*Ptot*x))/(2*Ptot), where y0 is the baseline anisotropy, ymax is the maximum anisotropy, Ptot is the fixed concentration of labeled peptide used, x is the variable concentration of protein used, and Kd is the measured Kd. Data are presented here as Ka=1/Kd. Log transformed Ka's were then compared by one-way ANOVA relative to wt control with Holm-Sidak post hoc correction. ***p<0.001, **p<0.01, *p<0.05. data are mean±SEM (n=3-4). Buffer was 50 mM Tris pH 8.0, 0.005% Tween20. For the sake of comparison, the double mutant h122l,a253a is shown on the same axes, but was not included in the statistical analysis as the experiment was done after the initial results identified the two single mutants.

Chain of Bovine Serum Albumin (BSA) (Bos taurus, UniProt P02769) (P02769 25-607): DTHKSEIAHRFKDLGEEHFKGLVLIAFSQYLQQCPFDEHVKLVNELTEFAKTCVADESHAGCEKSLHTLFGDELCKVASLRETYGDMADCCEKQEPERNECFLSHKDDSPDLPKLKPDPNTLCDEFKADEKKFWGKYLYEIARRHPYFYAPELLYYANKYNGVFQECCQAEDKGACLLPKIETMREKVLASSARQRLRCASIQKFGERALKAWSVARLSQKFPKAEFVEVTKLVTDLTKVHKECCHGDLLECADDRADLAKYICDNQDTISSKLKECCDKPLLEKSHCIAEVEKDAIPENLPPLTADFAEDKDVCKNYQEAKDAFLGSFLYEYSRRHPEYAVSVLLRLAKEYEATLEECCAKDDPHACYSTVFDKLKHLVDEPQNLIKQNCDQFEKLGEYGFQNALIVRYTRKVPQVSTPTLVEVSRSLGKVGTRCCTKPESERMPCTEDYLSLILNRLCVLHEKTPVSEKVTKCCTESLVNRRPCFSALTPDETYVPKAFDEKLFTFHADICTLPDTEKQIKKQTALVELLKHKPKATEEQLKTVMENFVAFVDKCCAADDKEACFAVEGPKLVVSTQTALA

As to GEKIPNFIPAELKLITKENVQ [native], the Kd (as a rule, the constant that tells how readily two partners part at equilibrium) in data set [1] was 0.2 nM and ~0.2 nM; in data set [3] (Gdn-HCl (6M)), above 10000 nM; in data set [3] (SDS (2%)), above 10000 nM; in data set [3] (imidazole (3M)), above 10000 nM; in [3] (urea (8M)) it was above 10000 nM. In addition, in data set [2] (1000 nM RPtag(large)), the “slope of initial velocity line using S (total)” value came to 0.035 min⁻¹. For the same molecule, the “rate constant for conversion of S to S* from linear fit of initial rate plot, S (corrected)” value in data set [2] (1000 nM RPtag(large), 0.6 to 10 nM RPtag (small)) stood at 0.091 min⁻¹. In addition, the “dissociation rate constant from first order rate law fit” value in data set [2] (0.1 mM unlabeled native RPtag small competitor, n=15) turned out to be 0.012 ± 0.002 min⁻¹. Moreover, in data set [2] (LS dissociation, unlabeled competitor peptide, listed as native RPtag (small)), the off-rate (koff) (as a rule, a measure of how fast the partners let go of each other) is 0.000152 s⁻¹. The “kr” value in [2] (S* to S reverse rate constant, calculated from Keq and kf, listed as native RPtag (small)) is 0.056 min⁻¹. Moreover, the “kon (M^−1 min^−1 ) (×10^7)” value in data set [2] (S*-LS transition, calculated from measured koff and Kd) is 4.3 ± 0.1 ×10^7 M^−1 min^−1. In addition, the entries for the “binding to BSA” value in data set [4] (listed as RPtag (small)) and in data set [4] (listed as native RPtag (small)) were “no detectable binding” and “no interaction was detected”, respectively. Moreover, the “selectivity over non-specific (BSA) interaction” value in [5] was > 50,000 fold. For the same molecule, the “pH of relative maximum affinity” value in data set [6] is listed as around 8 pH. The “elution behaviour with 100 mM Tris pH 8.0, 3 M imidazole” value in data set [7] is on record as “diffuse band”.

B1: RPtag (large): RB protein fragment a.a. 1-257 from Thermoanaerobacter tengcongensis; SEQ ID NO: 3 with tags and Cys (protein)
chain: MGSSCHHHHHHSQDPNSSSMKEGKTIGLVISTLNNPFFVTLKNGAEEKAKELGYKIIVEDSQNDSSKELSNVEDLIQQKVDVLLINPVDSDAVVTAIKEANSKNIPVITIDRSANGGDVVSHIASDNVKGGEMAAEFIAKALKGKGNVVELEGIPGASAARDRGKGFDEAIAKYPDIKIVAKQAADFDRSKGLSVMENILQAQPKIDAVFAQNDEMALGAIKAIEAANRQGIIVVGFDGTEDALKAIKEGKMAATIAQQPALMGSLGVEMADKYLK
modifications: tags and added Cys
As to B1, the “stability relative to commercially available products” value in data set [8] is reported as “at least 10 fold”. In addition, the Kd in data set [9] came out at 0.41 nM.
